# Reference: PMC10724246 (Nature Communications, 2023)
# No end group written: not given here.
# T1: αWD40 domain (α-COPI) (Schizosaccharomyces pombe, UniProt Q96WV5)
# T1 construct: strep-tag (C); made in house; host or cells: Expi293 cells
# T1 sequence (Q96WV5 1-327 limits assumed): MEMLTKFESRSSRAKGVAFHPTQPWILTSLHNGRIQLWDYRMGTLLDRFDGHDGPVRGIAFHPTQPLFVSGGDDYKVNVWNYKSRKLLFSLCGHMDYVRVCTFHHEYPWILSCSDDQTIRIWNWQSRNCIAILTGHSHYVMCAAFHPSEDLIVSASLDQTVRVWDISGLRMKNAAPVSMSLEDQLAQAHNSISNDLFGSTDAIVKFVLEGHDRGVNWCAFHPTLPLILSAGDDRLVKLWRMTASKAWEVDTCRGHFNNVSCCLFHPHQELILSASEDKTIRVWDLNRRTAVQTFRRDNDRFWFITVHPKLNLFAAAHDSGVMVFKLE
# T2: alpha-COP WD40 (Schizosaccharomyces pombe), Q96WV5
# T2 chain: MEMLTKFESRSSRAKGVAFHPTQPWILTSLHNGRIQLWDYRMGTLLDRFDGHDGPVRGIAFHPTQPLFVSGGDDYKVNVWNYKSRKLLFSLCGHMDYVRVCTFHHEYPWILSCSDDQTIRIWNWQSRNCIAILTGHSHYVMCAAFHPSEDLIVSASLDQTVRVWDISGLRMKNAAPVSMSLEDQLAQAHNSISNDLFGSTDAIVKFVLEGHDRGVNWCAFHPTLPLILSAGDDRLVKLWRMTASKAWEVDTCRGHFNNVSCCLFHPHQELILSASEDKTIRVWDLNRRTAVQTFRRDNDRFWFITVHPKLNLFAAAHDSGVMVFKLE
# What was measured:
# αWD40 domain (α-COPI) = target: T1, αWD40 domain (α-COPI); assay: Biolayer interferometry (BLI) of S tail peptides with wild-type αWD40; assay type: binding, S. pombe
# Procedure: Recombinant expression and purification of S. pombe αWD40 and S. cerevisiae β‘WD40 domains (both wild type and mutants) were carried out as described[43],[72],[75]. Briefly, αWD40 with a C-terminal strep-tag was expressed and purified from Expi293 cells using polyethyleneimine (PEI). The clarified cell lysate was subjected to affinity chromatography followed by size-exclusion chromatography (SEC) on a preparative grade Superdex-75 column.
# BLI assays with biotinylated S peptides from Biomatik (USA) and purified coatomer WD40 domains were carried out as described. […] S peptides were immobilized on streptavidin (SA) biosensors (FortéBio, USA). Measurements were performed on the Octet RED96 system (FortéBio, USA). Data acquisition and data analysis were performed using Data Acquisition 11.1 suite and FortéBio Data Analysis 11.1 software suite respectively. All experiments were performed at 25 °C and 1000 rpm shake speed. Appropriate sensor and loading controls were applied.
# yeast αWD40 domain = settings: published value, Supplementary Table S6; ref Ma & Goldberg, EMBO J 2013; cited from earlier work
# yeast β'WD40 domain = settings: published value, Supplementary Table S6; ref Ma & Goldberg, EMBO J 2013; cited from earlier work
# WD40 = settings: peer review response; ref Dey et al Communications Biology 2022; cited from earlier work
# From the text: page 26: dynamics/conformations of the tail. I see no need to perform experiments, but maybe this has been done (or other mutants been tested meanwhile)? Please comment at least! Response 3.21: We thank the reviewer for raising this point. We reported this BLI experiment in our previous publication, Dey et al Communications Biology 2022. […]
# [1] = target: T2, alpha-COP WD40 (Schizosaccharomyces …); settings: modification not given
# [2] = immobilized biotinylated peptide, αWD40 analyte, pH 6.5, 25 °C
# [3] = immobilized biotinylated peptide, αWD40 analyte, pH 7.0, 25 °C
molecule,measurement,setting,value
GVKLHYT (amidated),binding to αWD40 (in words),"αWD40 domain (α-COPI); Fig. 2M, listed as amidated wild-type S heptapeptide",Loss of αWD40 binding
R-R-S-F-I-D-E-K-K-M-P (RRSFIDEKKMP),Kd,yeast αWD40 domain,64.5 ± 5.4 µM
same,Kd,yeast β'WD40 domain,49 ± 2.2 µM
GVKLHYA,WD40 binding in BLI assays (in words),WD40,modest enhancement
CC(C)C[C@H](NC(=O)[C@H](CCCCN)NC(=O)[C@@H](NC(=O)CNC(=O)[C@H](CCCCN)NC(=O)[C@H](CC(C)C)NC(=O)[C@@H](NC(=O)[C@@H]1CCCN1C(=O)[C@H](CCC(=O)O)NC(=O)[C@H](CO)NC(=O)[C@H](CC(=O)O)NC(=O)[C@H](CC(=O)O)NC(=O)[C@H](CCC(=O)O)NC(=O)[C@H](CC(=O)O)NC(=O)[C@H](Cc1ccccc1)NC(=O)[C@H](CCCCN)NC(=O)[C@H](CS)NC(=O)[C@H](CS)NC(=O)CCCC[C@@H]1SC[C@@H]2NC(=O)N[C@@H]21)C(C)C)C(C)C)C(=O)N[C@@H](Cc1c[nH]cn1)C(=O)N[C@@H](Cc1ccc(O)cc1)C(=O)N[C@@H](CCC(=O)O)C(=O)O,Kd,"αWD40 domain (α-COPI); Equilibrium KD, immobilized biotinylated peptide, αWD40 analyte, pH 7.0, 25 °C",0.1 ± 0.002 µM
same,koff,αWD40 domain (α-COPI); [2],0.0037 ± 0.0002 s⁻¹
same,kon,αWD40 domain (α-COPI); [2],59.9 ± 1.3 10^3/Ms
same,koff,αWD40 domain (α-COPI); [3],0.003 ± 0.0002 s⁻¹
same,kon,αWD40 domain (α-COPI); [3],60.8 ± 1.3 10^3/Ms
GVKLHYE-NH2 [GVKLHYE (amidated)],koff,αWD40 domain (α-COPI); [2],0.88 ± 0.02 s⁻¹
same,kon,αWD40 domain (α-COPI); [2],706.2 ± 56.3 10^3/Ms
GVKLHYT [Spike tail heptapeptide],Kd,[1],1.4 µM
